Measurements from PubChem BioAssay (NCI).
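1) Cells in 96-well plates. 2) Compound, 48 h, 5 concentrations. 3) Linear interpolation between surrounding doses. 4) Unreached endpoint = highest concentration. TGI denotes the concentration required for complete inhibition of growth.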 Where a SMILES comes first, the peptide text is derived from it. [ ]: non-standard residue; d: D form. The star is where a group is joined. Bn2Val = CC(C)[C@@H](C(=O)*)N(Cc1ccccc1)Cc1ccccc1; NHPiperonyl = c1cc2c(cc1CN*)OCO2; NMeV = CN[C@H](C(=O)O)C(C)C; dNMeA = CN[C@H](C)C(=O)O

What was measured:
Assay in all cases: DTP human tumour cell line panel, 48 h
HOP-92 NSCLC = system: HOP-92 NSCLC
SK-MEL-2 melanoma = system: SK-MEL-2 melanoma
NCI-H23 lung = system: NCI-H23 lung
HL-60(TB) leukemia = system: HL-60(TB) leukemia
CAKI-1 renal = system: CAKI-1 renal
UO-31 renal = system: UO-31 renal
OVCAR-5 ovarian = system: OVCAR-5 ovarian
SF-268 CNS = system: SF-268 CNS
NCI-H460 lung = system: NCI-H460 lung
SK-MEL-5 melanoma = system: SK-MEL-5 melanoma
MDA-MB-231 breast = system: MDA-MB-231 breast
TK-10 renal = system: TK-10 renal
RPMI-8226 leukemia = system: RPMI-8226 leukemia
NCI/ADR-RES ovarian = system: NCI/ADR-RES ovarian
SF-295 CNS = system: SF-295 CNS
BT-549 breast = system: BT-549 breast
ACHN renal = system: ACHN renal
M14 melanoma = system: M14 melanoma
HCT-116 colon = system: HCT-116 colon
OVCAR-4 ovarian = system: OVCAR-4 ovarian

Structure (SMILES)	TGI (HOP-92 NSCLC) [µM]	TGI (SK-MEL-2 melanoma) [µM]	TGI (NCI-H23 lung) [µM]	TGI (HL-60(TB) leukemia) [µM]	TGI (CAKI-1 renal) [µM]	TGI (UO-31 renal) [µM]	TGI (OVCAR-5 ovarian) [µM]	TGI (SF-268 CNS) [µM]	TGI (NCI-H460 lung) [µM]	TGI (SK-MEL-5 melanoma) [µM]	TGI (MDA-MB-231 breast) [µM]	TGI (TK-10 renal) [µM]	TGI (RPMI-8226 leukemia) [µM]	TGI (NCI/ADR-RES ovarian) [µM]	TGI (SF-295 CNS) [µM]	TGI (BT-549 breast) [µM]	TGI (ACHN renal) [µM]	TGI (M14 melanoma) [µM]	TGI (HCT-116 colon) [µM]	TGI (OVCAR-4 ovarian) [µM]
CCOC(=O)CC[C@H](NC(=O)c1ccc(CNc2nc3cc(C(F)(F)F)ccc3nc2C(=O)OCC)cc1)C(=O)OCC	48.9	> 94.1	> 100	> 100	29.5	70.3	> 86	34.4	77.7	> 66.6	> 48.4	38.5	> 100	> 100	24.7	70.3	> 93.2	> 66.2	> 100	
CC(=O)OC(=C(C#N)C#N)c1nccnc1C(=O)O	> 100	> 100	> 100	> 100	> 100	> 100	> 100	> 100	> 100	> 100	> 100		> 100	> 100	> 100	> 100	> 100	> 100	> 100	> 100
O=C1CC(C(O)C(O)C(O)CO)CC(=O)N1 (centres undefined)	> 100		> 100	> 100	> 100	> 100	> 100	> 100	> 100	> 100	> 100	> 100	> 100	> 100	> 100	> 100	> 100	> 100	> 100	> 100
CC(SC(=S)N(C)C)C(=O)Nc1nnc(-c2ccc(Cl)cc2)o1 (centres undefined)	> 100	> 100	> 100			> 100	> 100	> 100	> 100	> 100	> 100	> 100	66.6	> 100		> 100	> 100	> 100	> 100	> 100
CSC1=NC(=O)CCN1C1OCC(OC(C)=O)C(OC(C)=O)C1OC(C)=O (centres undefined)	27	22.9	> 31.6	> 23	> 31.6	57.8	> 31.6	29.3	> 31.6	17.9	22.4	26	> 31.6	> 31.6	> 31.6	25	> 31.6		> 31.6	> 31.6
Cn1c(=O)c2c(nc(N3CCOCC3)n2CCCNCC(O)c2ccc(O)c(O)c2)n(C)c1=O (centres undefined)	> 100	> 100	> 100		> 100	> 100	> 100	> 100	> 100	> 100	> 100	> 100	> 100	> 100	> 100	> 100	> 100	> 100	> 100	> 100
Cc1c2ccccc2c(CSC(=N)N)c2ccccc12	1.43	0.375	0.272	0.343		0.511	1.13	1.33	0.374	0.331	1.03	0.667	0.558	0.924	2.29	3.72	0.303	0.537	1.35	0.514
Clc1ccc(C2ON=C(c3ccccc3)N2C23CC4CC(CC(C4)C2)C3)cc1Cl (centres undefined)	> 10	> 10	> 10		> 10	> 10	> 10	> 10	> 10	> 10	> 10	> 10	> 10	> 10	> 10	> 10	> 10	> 10	> 10	> 10
NNC(=O)CC(=O)Nc1ccccc1Cl	> 100	> 100	> 100	> 100	> 100	> 100	> 100	> 100	> 100	> 100	> 100	> 100	> 100	> 100	> 100	> 100	> 100		> 100	> 100
Cc1ccc2c(=O)cc(-c3cc4ccccc4s3)[nH]c2n1		> 100	> 100	> 100	> 100	0.17	> 100	> 100	> 100	> 100	> 100	> 100	> 100	> 100	> 100	> 100	> 100	> 100	> 100	> 100
COC1CC(=O)C2C(=O)N(c3ccccc3)C(=O)C23C(C(=O)c2ccccc2)=C(C)NC13O (centres undefined)	25.2	33.6	46.3		22.1	40.9	54.5	22.6	45.4	37.4	40	20.2	21.3	50.9	> 100	> 100	37.5	35.5	22.6	16.6
c1ccc(C2(c3ccccc3)S/C(=C3/SC(c4ccccc4)(c4ccccc4)c4ccccc43)c3ccccc32)cc1	> 100	> 100	> 100	> 100	> 100	> 100	> 100	> 100	> 100	> 100	> 100	> 100		> 100	> 100	> 100	> 100	> 100	> 100	> 100
CC1(C)CC(=O)c2c([nH]c(=S)c(C#N)c2-c2ccc(Br)cc2)C1	52.5	76.6	> 100	> 100	> 100	> 100	> 100	> 100	> 100	> 100	> 100	> 100		> 100	> 100	> 100	> 100	> 100	> 100	> 100
CCC(C#N)NCc1ccc(CNC(C#N)CC)cc1 (centres undefined)	> 100	> 100	> 100	> 100	> 100	> 100	> 100	> 100	> 100	> 100	> 100	> 100		> 100	> 100	> 100	> 100	> 100	> 100	> 100
O=C(O)COc1cc(-c2ccccc2F)nc2cc3c(cc12)OCO3	> 100	> 100	> 100		> 100		> 100	> 100		> 100	> 100	> 100	> 100	> 100	> 100	> 100	> 100	> 100	> 100	
CC(C)[C@H](NC(=O)[C@H](C(C)C)N(Cc1ccccc1)Cc1ccccc1)C(=O)N(C)[C@H](C(=O)N1CCC[C@H]1C(=O)N(C)[C@H](C)C(=O)NCc1ccc2c(c1)OCO2)C(C)C (Bn2Val-V[NMeV]P[dNMeA]-NHPiperonyl)		25.5	> 100	2.8	> 100	> 100	23.9	> 74.5	> 100		> 100	> 100	6.2	> 100	> 100	57.5	> 100	> 100	23.2	> 100
CCCCCCCCCCCCCCCCOP(=O)(O)OP(=O)(O)OCC1OC(n2cnc3c(N)ncnc32)C(O)C1O (centres undefined)	36.7	> 100	> 100	> 100	> 100	> 100	47.4	> 100	> 100	> 100	> 100	> 100		> 100		36.9	> 100	> 100	> 100	> 100
CC1(C)[C@H]2CC[C@](C)(C2)[C@]1(S)Cc1ccccn1	> 100	46.1	> 100	50.9	> 100	> 100	> 100	> 100	> 100	64.3	> 100	> 100	93.5	> 100	98.8	> 100	> 100	> 100	> 100	
CN(C)CCn1c2c(c3ccccc31)CCc1ccccc1-2	27	28.6	31.4		29.4	26.8	31.7	32.3	27.5	21.1	29.3	30.5	28.3	29.9	30.6	27.8	29.9	26.3	26.3	28.3
